Patent US20170035884A1, “AQUEOUS GELLING COMPOSITIONS OF SOLUBLE ACTIVE PHARMACEUTICAL PEPTIDES PROVIDING MODIFIED RELEASE” (Ipsen Pharma S.A.S., priority 2012, published 2017)
Counter-ions that a name gives are not always drawn. Like-named read-outs stand apart in the source and are kept apart here.

Test: Solubility testing of peptide 1 salts in gelling compositions (HPLC after filtration)
Type: physicochemical
Protocol: The solubility of the peptide 1 salts in the gelling compositions of Table 1 was evaluated using HPLC analysis after filtration.

SMILES	solubility (38% glycerol gelling composition, in 38% glycerol, read-out: solubility)	solubility (in 32% PEG 400)
CC(=O)NC(CCCNC(=N)N)C(=O)N[C@H]1CSSC[C@@H](C(N)=O)NC(=O)[C@H](Cc2c[nH]c3ccccc23)NC(=O)[C@H](CCCNC(=N)N)NC(=O)[C@@H](Cc2ccccc2)NC(=O)[C@H](Cc2cnc[nH]2)NC(=O)[C@@H](C)NC1=O (stereo partly drawn) [peptide 1 acetate salt, Ac-Arg-c(Cys-D-Ala-His-D-Phe-Arg-Trp-Cys)-NH2]	≥ 100 mg/mL	≥ 100 mg/mL
CC(=O)NC(CCCNC(=N)N)C(=O)N[C@H]1CSSC[C@@H](C(N)=O)NC(=O)[C@H](Cc2c[nH]c3ccccc23)NC(=O)[C@H](CCCNC(=N)N)NC(=O)[C@@H](Cc2ccccc2)NC(=O)[C@H](Cc2cnc[nH]2)NC(=O)[C@@H](C)NC1=O (stereo partly drawn) [peptide 1 heptanoate salt, Ac-Arg-c(Cys-D-Ala-His-D-Phe-Arg-Trp-Cys)-NH2]	–	28.1 mg/mL
